In patent publication US4703061A, “Gamma-aminobutyric acid derivatives, process for production thereof, and use thereof as medicaments” (priority 1984, dated 1987):
Where a name gives a salt, the structure may show the parent alone.

Assays:
[1] = system: motor activity enhanced by methamphetamine; assay: Antagonistic effect against methamphetamine (automex method); type: in vivo, ddY-strain male mice; conditions: for Motor activity (total number of counts): 500 mg/kg i.p. + methamphetamine 3 mg/kg s.c.
Procedure: (§1) In Tests 1 to 4 given below, ddY-strain male mice (body weight 20-25 g) were used, and the experiments were carried out in a semi-soundproof, constant-temperature room kept at a temperature of 23±1° C. and a humidity of 55±2%. The mice were allowed to take feed and water freely.
Test 2: Antagonistic effect against methamphetamine (automex method)
Mice were used in 5-membered groups. Each of the test compounds was intraperitoneally administered to the mice in a predetermined dose, and immediately then, the mice were subcutaneously injected with methamphetamine in a dose of 3 mg/kg. The action of the test compounds on motor activity enhanced by methamphetamine was examined in accordance with the automex method given above.

[2] = system: cycloheximide-induced amnesia model; assay: Effects on CXM-induced amnesia (step-down retention test); type: in vivo, ddY-strain male mice; conditions: for Escape learning latency (mean ± S.E.) / Step-down latency (mean ± S.E.): retention test 24 hours
Procedure: The test animals used were ddY-strain male mice (body weight 30-35 g). The experiment was carried out indoors at about 20° C., and the mice were allowed to take feed and water freely. 2. Effects on memorized behaviors
A device comprised of a floor grid surrounded on four sides by acrylic glass walls each having a lateral dimension of 21 cm and a wooden platform, 4×4×4 cm in size, fixed centrally to the floor grid was placed in a wooden semi-soundproof box having a size of 21×21×40 cm with a 15W electric bulb suspended from its ceiling.
The floor grid consisted of stainless steel rods, 3 mm in diameter, arranged at intervals of 8 mm. An intermittent electric shock (1 Hz, 0.5 sec., 60 V DC) was applied to the grid by an electric impulse apparatus and an isolator.
A mouse was placed in a predetermined direction on the platform. Immediately after the mouse stepped down onto the floor grid (when the mouse's four limbs left the platform), an electric shock was applied to the floor grid, and the intermittent application of the electric shock was continued until the mouse climbed up the platform to escape from the electric shock. The time which elapsed until the mouse stepped down from the platform (SDL, step down latency) and the time which elapsed until the mouse escaped to the platform from the electric shock (ELL, escape learning latency) were measured.
By the same procedure as in the training test, a mouse was placed on the platform, and its step down latency (SDL) was measured. The cut-off time was 300 seconds.
After the mouse stepped down, or the cut-off time elapsed, the mouse was placed on the floor grid at a corner of the device with its head directed in a direction opposite to the platform. An electric shock was applied to the mouse and its escape learning latency (ELL) was measured.
Mice divided into groups each consisting of not less than 20 mice were subjected to the training test, and immediately then subcutaneously injected with CXM (150 mg/kg). Twenty-four hours later, the mice was subjected to the retention test.
Immediately after administration of CXM or application of ECS, a 0.9% normal saline solution of each of the test compounds was intraperitoneally administered to the mice. Separately, a 5% gum arabic solution of CXM was administered to the mice in a control group.

[3] = system: sleeping induced by pentobarbital; assay: Effect of prolonging the time of sleeping induced by pentobarbital; type: in vivo, ddY-strain male mice; conditions: pentobarbital sodium 50 mg/kg s.c.
Procedure: as §1
Test 3: Effect of prolonging the time of sleeping induced by pentobarbital
The effects of the test compounds on sleeping induced by pentobarbital were examined. The disappearance of righting reflex for 5 seconds or more was used as an index of sleeping. Mice were divided into 10-membered groups. Each of the test compounds was intraperitoneally administered to the mice in the doses indicated. Immediately then, pentobarbital sodium salt was subcutaneously injected into the mice in a dose of 50 mg/kg, and the sleeping time was compared with that of a group to which pentobarbital alone was injected (control).

[4] = system: motor activity induced by atropine; assay: Antagonistic effect against atropine (automex method); type: in vivo, ddY-strain male mice
Procedure: as §1
Test 4: Antagonistic effect against atropine (automex method)
Each of the test compounds was intraperitoneally administered to mice divided into 6-membered groups, and immediately then, atropine was subcutaneously injected into the mice in a dose of 30 mg/kg. The effect of each test compound on the enhancement of motor activity induced by atropine was examined in accordance with the automex method.

[5] = background statement; cited from earlier work
[6] = background statement; cited from earlier work; remark: listed apart in the source
[7] = 500 mg/kg i.p., CXM 150 mg/kg s.c.
[8] = 1000 mg/kg i.p., CXM 150 mg/kg s.c.

CC(C)(CO)C(O)C(=O)NCCCC(=O)O (stereo not drawn) [Ca salt of hopantenic acid, Calcium 4(2,4-dihydroxy3,3-dimethyl-butylamide)butyrate, reference compound]
Motor activity (total number of counts) ([1]; 5 minutes): 26 counts | Motor activity (total number of counts) ([1]; 10 minutes): 55 counts | Motor activity (total number of counts) ([1]; 15 minutes): 94 counts | Motor activity (total number of counts) ([1]; 20 minutes): 144 counts | Motor activity (total number of counts) ([1]; 25 minutes): 273 counts | Motor activity (total number of counts) ([1]; 30 minutes): 408 counts | antagonistic effect against the increase of motor activity induced by methamphetamine ([1]; 500 mg/kg, result in words): scarcely observed | Escape learning latency (mean ± S.E.) [2, 7]: 10.3 ± 0.7 s | Step-down latency (mean ± S.E.) [2, 7]: 122.3 ± 13.0 s | Escape learning latency (mean ± S.E.) [2, 8]: 8.2 ± 1.0 s | Step-down latency (mean ± S.E.) [2, 8]: 187.7 ± 19.7 s | Escape learning latency (mean ± S.E.) ([2]; 1000 mg/kg i.p., without CXM): 5.6 ± 0.8 s | Step-down latency (mean ± S.E.) ([2]; 1000 mg/kg i.p., without CXM): 275.9 ± 9.7 s | memory activating action ([2]; without CXM, vs control group, result in words): did not show memory activating action | Sleeping time ([3]; 1000 mg/kg i.p.): 57.0 ± 6.7 min | Sleeping time ([3]; 2000 mg/kg i.p.): 67.0 ± 5.9 min | Motor activity (total number of counts) ([4]; 600 mg/kg i.p. + atropine 30 mg/kg s.c., 5 minutes): 16 counts | Motor activity (total number of counts) ([4]; 600 mg/kg i.p. + atropine 30 mg/kg s.c., 10 minutes): 16 counts | Motor activity (total number of counts) ([4]; 600 mg/kg i.p. + atropine 30 mg/kg s.c., 15 minutes): 29 counts | Motor activity (total number of counts) ([4]; 600 mg/kg i.p. + atropine 30 mg/kg s.c., 20 minutes): 56 counts | Motor activity (total number of counts) ([4]; 600 mg/kg i.p. + atropine 30 mg/kg s.c., 25 minutes): 88 counts | Motor activity (total number of counts) ([4]; 600 mg/kg i.p. + atropine 30 mg/kg s.c., 30 minutes): 151 counts

CN1[C@@H]2CC[C@H]1C[C@@H](OC(=O)C(CO)c1ccccc1)C2 (stereo partly drawn) [Atropine, atropine]
Motor activity (total number of counts) ([4]; atropine alone, 30 mg/kg, 5 minutes): 59 counts | Motor activity (total number of counts) ([4]; atropine alone, 30 mg/kg, 10 minutes): 233 counts | Motor activity (total number of counts) ([4]; atropine alone, 30 mg/kg, 15 minutes): 425 counts | Motor activity (total number of counts) ([4]; atropine alone, 30 mg/kg, 20 minutes): 620 counts | Motor activity (total number of counts) ([4]; atropine alone, 30 mg/kg, 25 minutes): 806 counts | Motor activity (total number of counts) ([4]; atropine alone, 30 mg/kg, 30 minutes): 964 counts

NCCCC(=O)O [gamma-aminobutyric acid]
transmigration through the blood brain barrier [5]: hardly transmigrates through the blood brain barrier | excretion into urine [6]: easily excreted into urine
